In BindingDB's records for doi:10.7270/Q2833QWM (D3R/Abbott, 2015):

Target: T1, tRNA (guanine-N(1)-)-methyltransferase (Haemophilus influenzae (strain ATCC 51907 / DSM 11121 / KW20 / Rd), UniProt P43912)
T1 sequence (P43912 whole entry): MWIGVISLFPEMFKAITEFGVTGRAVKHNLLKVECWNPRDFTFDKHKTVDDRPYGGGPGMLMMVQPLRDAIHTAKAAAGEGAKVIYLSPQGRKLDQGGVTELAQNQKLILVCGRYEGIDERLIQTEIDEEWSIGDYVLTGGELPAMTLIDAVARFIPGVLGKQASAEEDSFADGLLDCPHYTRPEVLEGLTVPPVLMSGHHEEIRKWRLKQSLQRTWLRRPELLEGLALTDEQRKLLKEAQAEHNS
Assay: ScintillationProximity_Assay
Source text: ScintillationProximity_Assay

SMILES	IC50
c1cc(-c2c[nH]cn2)ccn1	158 µM
NC(=O)c1ccc(NCc2ccccc2)nc1 [GTC000444A]	3.16 µM
NC(=O)c1ccc(N)nc1 [GTC000445A]	25.1 µM
c1cc(-c2ncc[nH]2)ccn1 [GTC000447A]	316 µM
Nc1nonc1C(=O)NCc1ccc(Cl)cc1 [GTC000448A]	39.8 µM
CC(C)(C)c1cccc(C(=O)NCC2(NC(=O)c3cccc4nocc34)CCCCC2)c1 [GTC000449A]	0.00501 µM
CC(C)(C)c1cccc(C(=O)NCC2(NC(=O)c3cccc4nocc34)CCCC2)c1 [GTC000450A]	0.00501 µM
Cc1cccc(C(=O)NCC2(NC(=O)c3cccc4nocc34)CCCC2)c1 [GTC000451A]	0.158 µM
NC(=O)c1ccc(NCc2cccc(O)c2)nc1 [GTC000452A]	2 µM
CN(C)c1cccc(CNc2ccc(C(N)=O)cn2)c1 [GTC000453A]	3.98 µM
COc1ccccc1CNc1ccc(C(N)=O)cn1 [GTC000454A]	0.794 µM
CN(C)c1ccccc1CNc1ccc(C(N)=O)cn1 [GTC000455A]	6.31 µM
Nc1nonc1C(=O)N[C@@H]1CC[C@H](O)C1 [GTC000456A]	7.94 µM
NC(=O)c1ccc(NC2CCCC2)nc1 [GTC000457A]	0.2 µM
NC(=O)c1ccc(NCC2CCCC2)nc1 [GTC000458A]	0.501 µM
NC(=O)c1ccc(NCc2ccccc2O)nc1 [GTC000459A]	1.26 µM

SMILES	IC50
NC(=O)c1ccc(N[C@@H]2CC[C@@H](O)C2)nc1 [GTC000460A]	0.2 µM
Cc1cccc(C(=O)NCCC2(CNc3ccc(C(N)=O)cn3)CCCCC2)c1 [GTC000461A]	7.94 µM
Nc1nonc1C(=O)NCC1CCCCC1 [GTC000462A]	2 µM
Nc1nonc1C(=O)N1CCN(Cc2ccccn2)CC1 [GTC000463A]	15.8 µM
NC(=O)c1cnc(NC2CCCC2)nc1N [GTC000464A]	0.631 µM
Nc1nonc1C(=O)NC1CCNCC1 [GTC000465A]	20 µM
Nc1nonc1C(=O)N[C@@H]1C[C@H]1c1ccc(S(N)(=O)=O)cc1 [GTC000466A]	15.8 µM
NC(=O)c1ccc(NC2CCC(c3ccccc3)C2)nc1 (stereo unspecified) [GTC000467A]	0.631 µM
NC(=O)c1ccc(N[C@@H]2C[C@H](CO)[C@@H](O)C2)nc1 [GTC000468A]	1.59 µM
NC[C@H]1CCC[C@@H](CNc2ccc(C(N)=O)cn2)C1 [GTC000469A]	0.501 µM
NC(=O)c1ccc(NCc2ccccc2N2CCOCC2)nc1 [GTC000470A]	2 µM
CN1CCN(c2ccccc2CNc2ccc(C(N)=O)cn2)CC1 [GTC000471A]	0.794 µM
CN1CCN(C(=O)c2nonc2N)CC1 [GTC000472A]	100 µM
COc1ccc(C(=O)n2ncnc2N)cc1 [GTC000473A]	2.51 µM
CC(C)(C)CNc1ncc(C(N)=O)c(N)n1 [GTC000474A]	0.794 µM
